From patent publication US20090181901A1, “COMPOSITIONS AND METHODS TO INCREASE BIOAVAILABILITY OF CAROTENOIDS” (priority 2007, published 2009)

How the values were obtained:
[1] = Cellular uptake of Lutein (free form) in CaCo-2 cells; format: in vitro ADME; details: human, 10 mg Lutein/100 mL medium, alone or plus 160 mg bilberry extract or 180 mg Bil/Cys
Description: (§1) CaCo-2 cells were cultured in Dulbeccos's Modified Eagle Medium containing 20% fetal bovine serum, 1.2% nonessential amino acids, 0.83 mM L-glutamine, 1.2% penicillin-streptomycin and 0.1% mercaptoethanole in an atmosphere of 5% CO2 and 95% air at 37° C.
(§2) Cells were grown in 75 cm^2 culture-flasks (T75) and sub-cultured after one week (every other day washed with PBS buffer, removed with trypsin and transferred to a new culture flask).
For experiments, cells were seeded in 6 well plates at a density of 3×10^5 cells per well and grown in an atmosphere of 5% CO2 and 95% air at 37° C. 7 to 8 days until confluence was reached. The cells were washed with PBS buffer, incubated with 4 ml medium containing the suspended samples for 30, 60 or 120 minutes.
After the corresponding incubation time, the cells were washed with PBS buffer and removed using 1 ml of TBME. Cells were sonicated 3 times for 30 seconds, centrifuged for 10 min and the pellets were discarded. The supernatant was used as sample for HPLC (lutein). For luteindipalmitinic-ester the supernatant was hydrolyzed by reflux heating in ethanol/HCl.
Cmax was taken directly from the concentration/time data obtained from the analysis. […]
Quantification was performed by external standardization after linear regression analysis. […]

[2] = tested on: CaCo-2 cells; experiment: Cellular uptake of Lutein and Zeaxanthine in CaCo-2 cells with or without black currant extract; format: in vitro ADME; details: for Level observed in cells: 9 mg Lutein+1 mg Zeaxanthine/100 mL; for Absorption in presence of black currant extract (in words): compared with absence of black currant extract; for Factor by which absorption is increased in presence of Black Currant extract: with vs without Black Currant extract
Description: CaCo-2 cells were cultured in Dulbeccos's Modified Eagle Medium (DMEM) containing 20% fetal bovine serum, 1.2% nonessential amino acids, 0.83 mM L-glutamine, 1.2% penicillin-streptomycin and 0.1% mercaptoethanole in an atmosphere of 5% CO2 and 95% air at 37° C.
as §2
For experiments, cells were seeded in 6 well plates at a density of 3×10^5 cells per well and grown in an atmosphere of 5% CO2 and 95% air at 37° C., 7 to 8 days until confluence was reached. The cells were washed with PBS buffer, incubated with 4 ml medium containing the suspended samples for 30, 60 or 120 minutes.
After the corresponding incubation time, the cells were washed with PBS buffer and removed using 1 ml of TBME. Cells were sonicated 3 times for 30 seconds, centrifuged for 10 min and the pellets were discarded. The supernatant was used as sample for HPLC (lutein).
Cmax was taken directly from the concentration/time data obtained from the analysis.
The concentration/time data obtained from the analysis were further submitted to non-compartmental calculation of the AUC0-120min using the trapezoidal rule.
(§3) Quantification was performed by external standardization after linear regression analysis.
CaCo-2 cells were incubated with (9 mg Lutein+1 mg Zeaxanthine, see Table 6)/100 mL with or without 160 mg black currant extract/100 mL medium. Incubations were performed at 37° C. for 30, 60 and 120 minutes. At each time point, 3 wells were processed for analysis by collection of the incubation medium and extraction of Lutein/Zeaxanthine absorbed into the cells.

[3] = Stability of Lutein and Zeaxanthine in incubation medium (control experiment); format: physicochemical; details: for Stability in incubation medium: 37° C.; for Breakdown in incubation medium (in words): test assay conditions, 120 minutes at 37° C.
Excerpt: In a control experiment, the stability of the analytes under the experimental conditions was investigated.

[4] = tested on: CaCo-2 cells; experiment: Cellular uptake of Lutein (esterified form) in CaCo-2 cells; format: in vitro ADME; details: 20 mg Luteindipalmitinic-ester/100 mL medium, alone or plus 160 mg bilberry extract or 180 mg Bil/Cys; 37° C.; lutein quantified after hydrolysis
Description: as §1, §2
For experiments, cells were seeded in 6 well plates at a density of 3×10^5 cells per well and grown in an atmosphere of 5% CO2 and 95% air at 37° C. 7 to 8 days until confluence was reached. The cells were washed with PBS buffer, incubated with 4 ml medium containing the suspended samples for 30, 60 or 120 minutes. […]
as §3
CaCo-2 cells were incubated with 20 mg Luteindipalmitinic-ester/100 mL medium, 20 mg (0.019 mmol) Luteindipalmitinic-ester plus 160 mg bilberry extract (25% anthocyanins, 0.08 mmol)/100 mL medium or 20 mg Luteindipalmitinic-ester plus 180 mg Bil/Cys [equivalent to 162 mg bilberry (25% anthocyanins, 0.081 mmol) and 18 mg (0.149 mmol) L-cysteine] at 37° C. for 30, 60 and 120 minutes. […] After hydrolysis of the luteinester, lutein was quantified in the cells.

[5] = In vitro stability of lutein in pH 7.0 buffer (UV-VIS degradation ratio); format: physicochemical
Description: 10.0 mg ([…]) lutein in 10 ml was added to a volumetric flask and diluted to volume with THF. In a small beaker, 0.50 g PEO (20) sorbitan monooleate was dissolved in 15.0 g de-ionized water. 1.0 ml lutein THF solution was added into the water solution and sonicated until a clear yellow micro-emulsion was formed.
10.0 mg (0.006 mmol) bilberry extract was added to a second 10 ml volumetric flask and filled to volume with de-ionized water. 1.0 ml bilberry extract solution was transferred to a small beaker and sonicated until a homogeneous solution was obtained. 1.0 ml of the bilberry solution was placed into a 10 ml colorless volumetric flask and filled to volume with sodium phosphate buffer (pH=7.0). The buffered solution was placed into a 37° C. water bath for 5 hours. UV-VIS spectrometery was used to analyze the degradation ratio. All samples were made alike. Similarly, L-cysteine was used in place of bilberry extract.

[6] = Time 0 min, with BC (160 mg black currant extract/100 mL)
[7] = Time 30 min, with BC (160 mg black currant extract/100 mL)
[8] = Time 60 min, with BC (160 mg black currant extract/100 mL)
[9] = Time 120 min, with BC (160 mg black currant extract/100 mL)
[10] = with BC (160 mg black currant extract/100 mL)
[11] = Time 120 min, slight increase ascribed to evaporation of the medium

Compound | Relative cellular uptake (sum of lutein and Zeaxanthine set to 100%) ([2]; 30 min, With Black Currant) [%] | Relative cellular uptake (sum of lutein and Zeaxanthine set to 100%) ([2]; 30 min, Without Black Currant) [%] | Relative cellular uptake (sum of lutein and Zeaxanthine set to 100%) ([2]; 60 min, With Black Currant) [%] | Relative cellular uptake (sum of lutein and Zeaxanthine set to 100%) ([2]; 60 min, Without Black Currant) [%] | Relative cellular uptake (sum of lutein and Zeaxanthine set to 100%) ([2]; 120 min, With Black Currant) [%] | Relative cellular uptake (sum of lutein and Zeaxanthine set to 100%) ([2]; 120 min, Without Black Currant) [%] | Level observed in cells [2, 6] [ng/mL] | Level observed in cells ([2]; Time 0 min, without BC) [ng/mL] | Level observed in cells [2, 7] [ng/mL] | Level observed in cells ([2]; Time 30 min, without BC) [ng/mL] | Level observed in cells [2, 8] [ng/mL] | Level observed in cells ([2]; Time 60 min, without BC) [ng/mL] | Level observed in cells [2, 9] [ng/mL] | Level observed in cells ([2]; Time 120 min, without BC) [ng/mL] | Absorption in presence of black currant extract (in words) [2] | AUC0-120 of cellular uptake [2, 10] [µg·min/mL] | Cmax of cellular uptake [2, 10] [ng/mL] | Factor by which absorption is increased in presence of Black Currant extract [2] | AUC0-120 of cellular uptake ([2]; without BC) [µg·min/mL] | Cmax of cellular uptake ([2]; without BC) [ng/mL] | further results
CC1=C[C@H](O)CC(C)(C)[C@H]1/C=C/C(C)=C/C=C/C(C)=C/C=C/C=C(C)/C=C/C=C(C)/C=C/C1=C(C)C[C@@H](O)CC1(C)C [Lutein, (3R,3′R,6′R)-beta, epsilon-carotene-3,3′-diol] | 87.3 | 85.6 | 85.8 | 85.5 | 86.6 | 87.3 | 0 | 0 | 2120 | 776 | 2346 | 1420 | 1897 | 1170 | better absorption | 226.1 | 2346 | ~2 | 122.3 | 1420 | AUC(0-t) at 10 mg/100 mL ([1]; 37° C., 0-120 min, read-out: Total uptake of Lutein (AUC0-120min, trapezoidal rule) (converted)): 2250 ng·h/mL; Cmax at 10 mg/100 mL ([1]; 37° C., 30, 60, 120 minutes): 1530 ng/mL; Stability in incubation medium ([3]; Time 0 min): 100%; Stability in incubation medium [3, 11]: 108%; Breakdown in incubation medium (in words) [3]: no breakdown
CCCCCCCCCCCCCCCC(=O)O[C@@H]1CC(C)=C(/C=C/C(C)=C/C=C/C(C)=C/C=C/C=C(C)/C=C/C=C(C)/C=C/[C@H]2C(C)=C[C@H](OC(=O)CCCCCCCCCCCCCCC)CC2(C)C)C(C)(C)C1 [Luteinester, Luteindipalmitinic-ester] |  |  |  |  |  |  |  |  |  |  |  |  |  |  |  |  |  |  |  |  | Cmax of cellular uptake of Luteinester [4]: 530 ng/mL; Total uptake of Luteinester (AUC0-120min, trapezoidal rule) [4]: 42.2 µg·min/mL
CC1=C(/C=C/C(C)=C/C=C/C(C)=C/C=C/C=C(C)/C=C/C=C(C)/C=C/C2=C(C)C[C@@H](O)CC2(C)C)C(C)(C)C[C@H](O)C1 [Zeaxanthine, (3R,3′R)-beta, beta carotene-3,3′-diol] | 12.7 | 14.4 | 14.2 | 14.5 | 13.4 | 12.7 | 0 | 0 | 309 | 131 | 363 | 240 | 314 | 181 | better absorption | 35.01 | 363 | ~2 | 20.17 | 240 | Absorption of zeaxanthine compared to lutein (in words) [2]: better absorption as compared to lutein; Stability in incubation medium ([3]; Time 0 min): 100%; Stability in incubation medium [3, 11]: 106%; Breakdown in incubation medium (in words) [3]: no breakdown
N[C@@H](CS)C(=O)O [L-Cys, L-Cysteine] |  |  |  |  |  |  |  |  |  |  |  |  |  |  |  |  |  |  |  |  | Residual Ratio of lutein ([5]; 0.2 mg (0.17 μmol/ml) L-Cys, pH 7.0, 37° C., 5 hours, blank 86.82): 90.22%; Residual Ratio of lutein ([5]; 1.0 mg (0.8 μmol/ml) L-Cys, 4.3 μg free lutein, phosphate buffer pH 7.0, 37° C., 5 hours, blank (lutein alone) 86.82): 94.52%; Residual Ratio of lutein ([5]; 2.0 mg (1.7 μmol/ml) L-Cys, 4.3 μg free lutein, pH 7.0, 37° C., 5 hours, blank 86.82): 94.47%; Residual Ratio of lutein ([5]; 5.0 mg (4.1 μmol/ml) L-Cys, 4.3 μg free lutein, pH 7.0, 37° C., 5 hours, blank 86.82): 95.41%; Residual Ratio of lutein ([5]; 10.0 mg (8.2 μmol/ml) L-Cys, 4.3 μg free lutein, pH 7.0, 37° C., 5 hours, blank 86.82): 94.74%; Protection of lutein against degradation (in words) ([5]; neutral environmental conditions): remarkable protection; Concentration at which an enhanced protective effect on lutein was noted ([5]; pH 7.0, 37° C., 5 hours): about 4.1 μmol/ml
